Three compounds from ChEMBL document CHEMBL5357082, “Identification and Optimization of Small Molecule Pyrazolopyrimidine TLR7 Agonists for Applications in Immuno-oncology” (ACS Med Chem Lett, 2024) can be followed below.

Each structure is given as a SMILES string. Where only a bound is given, the exact number is not on record here.

The target in series [1] is Cytochrome P450 2C19 (Homo sapiens, UniProt P33261). In words: Inhibition of CYP2C19 (unknown origin). Format: ADME.
Series [2] can be described thus: Metabolic stability in human liver microsomes assessed as compound remaining at 0.5 uM incubated for 10 mins in presence of NADPH by UV absorbance based assay. Format: ADME, Microsome. To be noted: read-out: Stability.
The target of series [3] is T1, Cytochrome P450 3A4 (Homo sapiens, UniProt P08684). Put plainly: Inhibition of CYP3A4 (unknown origin) using BFC as substrate preincubated with compound followed by substrate addition at 30 mins. Format: ADME.
T1 sequence (P08684 whole entry): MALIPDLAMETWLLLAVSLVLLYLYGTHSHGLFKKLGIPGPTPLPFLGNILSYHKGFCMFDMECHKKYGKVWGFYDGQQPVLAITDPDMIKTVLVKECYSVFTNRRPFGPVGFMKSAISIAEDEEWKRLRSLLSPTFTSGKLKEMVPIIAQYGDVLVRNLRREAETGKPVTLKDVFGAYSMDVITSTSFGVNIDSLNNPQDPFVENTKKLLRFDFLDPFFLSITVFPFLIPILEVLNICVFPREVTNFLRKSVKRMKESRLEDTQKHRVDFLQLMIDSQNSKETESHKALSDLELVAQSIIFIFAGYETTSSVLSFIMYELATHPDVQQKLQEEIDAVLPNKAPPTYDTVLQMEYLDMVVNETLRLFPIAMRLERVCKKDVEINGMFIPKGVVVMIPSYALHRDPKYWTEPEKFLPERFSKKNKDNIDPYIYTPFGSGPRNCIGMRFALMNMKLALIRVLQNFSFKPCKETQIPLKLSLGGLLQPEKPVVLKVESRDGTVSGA
Series [4] in a line: Metabolic stability in mouse liver microsomes assessed as compound remaining at 0.5 uM incubated for 10 mins in presence of NADPH by UV absorbance based assay. Format: ADME, Microsome. Particulars: read-out: Stability. (In general: Microsomes from liver hold many membrane-bound enzymes, among them those of drug oxidation.)
The target of series [5] is T1, Cytochrome P450 3A4. Put plainly: Inhibition of CYP3A4 (unknown origin) using BFC as substrate preincubated with compound followed by substrate addition at 5 mins. It counts as ADME.
Series [6] deals with Cytochrome P450 2D6 (Homo sapiens, UniProt P10635). In words: Inhibition of CYP2D6 (unknown origin). It counts as ADME.
Chain of Cytochrome P450 2D6 (P10635 whole entry): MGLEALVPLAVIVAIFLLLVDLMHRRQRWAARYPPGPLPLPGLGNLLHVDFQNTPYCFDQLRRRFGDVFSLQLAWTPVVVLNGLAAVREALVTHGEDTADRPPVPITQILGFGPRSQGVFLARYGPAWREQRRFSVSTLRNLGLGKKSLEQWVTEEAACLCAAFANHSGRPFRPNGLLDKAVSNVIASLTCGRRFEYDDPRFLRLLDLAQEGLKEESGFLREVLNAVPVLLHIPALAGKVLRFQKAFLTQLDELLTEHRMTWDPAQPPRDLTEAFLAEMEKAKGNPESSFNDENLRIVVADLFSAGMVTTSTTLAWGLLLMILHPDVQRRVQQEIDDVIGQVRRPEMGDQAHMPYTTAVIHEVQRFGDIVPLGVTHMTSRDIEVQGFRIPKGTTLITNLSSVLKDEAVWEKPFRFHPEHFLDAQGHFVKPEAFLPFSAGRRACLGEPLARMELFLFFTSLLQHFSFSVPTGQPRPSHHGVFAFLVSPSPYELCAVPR
The target in series [7] is T2, Toll-like receptor 7 (Homo sapiens, UniProt Q9NYK1).
T2 sequence (Q9NYK1 whole entry): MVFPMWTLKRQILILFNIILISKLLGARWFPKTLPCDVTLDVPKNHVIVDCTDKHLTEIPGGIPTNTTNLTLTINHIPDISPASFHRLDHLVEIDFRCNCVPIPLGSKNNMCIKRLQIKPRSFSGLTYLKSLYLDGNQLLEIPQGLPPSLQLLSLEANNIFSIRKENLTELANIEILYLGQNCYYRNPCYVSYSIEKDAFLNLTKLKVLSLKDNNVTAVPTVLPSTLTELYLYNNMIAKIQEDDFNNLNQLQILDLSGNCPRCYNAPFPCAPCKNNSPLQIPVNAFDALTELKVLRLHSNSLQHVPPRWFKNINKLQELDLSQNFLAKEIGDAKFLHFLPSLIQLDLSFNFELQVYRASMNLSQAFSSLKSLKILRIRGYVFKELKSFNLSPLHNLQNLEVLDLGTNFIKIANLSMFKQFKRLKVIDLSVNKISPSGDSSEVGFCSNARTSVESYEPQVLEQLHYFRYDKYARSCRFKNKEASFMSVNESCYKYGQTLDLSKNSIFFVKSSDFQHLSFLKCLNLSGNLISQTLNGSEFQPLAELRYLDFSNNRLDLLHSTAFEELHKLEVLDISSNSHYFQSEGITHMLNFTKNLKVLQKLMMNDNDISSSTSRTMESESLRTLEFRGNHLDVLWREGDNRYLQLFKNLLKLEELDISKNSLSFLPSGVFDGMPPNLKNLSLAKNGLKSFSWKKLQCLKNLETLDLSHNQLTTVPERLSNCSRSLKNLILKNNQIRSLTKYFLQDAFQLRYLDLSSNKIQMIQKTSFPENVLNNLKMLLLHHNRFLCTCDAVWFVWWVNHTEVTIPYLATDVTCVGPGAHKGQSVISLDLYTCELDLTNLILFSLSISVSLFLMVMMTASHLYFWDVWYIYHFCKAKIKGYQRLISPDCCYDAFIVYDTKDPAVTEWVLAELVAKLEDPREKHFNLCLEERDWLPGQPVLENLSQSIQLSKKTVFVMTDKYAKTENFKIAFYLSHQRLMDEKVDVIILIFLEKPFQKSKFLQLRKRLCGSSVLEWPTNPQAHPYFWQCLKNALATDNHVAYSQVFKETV
In words: Agonist activity at human TLR7 in HEK-Blue hTLR7 cells harboring SEAP reporter transgene incubated for 18 hrs by quanti-blue reagent based assay. Format: cell-based.

Series [8] addresses T1, Cytochrome P450 3A4. In words: Inhibition of CYP3A4 (unknown origin) using BFC as substrate. It counts as ADME.
In series [9] the target is T3, Toll-like receptor 7 (Mus musculus, UniProt P58681).
T3 sequence (P58681 whole entry): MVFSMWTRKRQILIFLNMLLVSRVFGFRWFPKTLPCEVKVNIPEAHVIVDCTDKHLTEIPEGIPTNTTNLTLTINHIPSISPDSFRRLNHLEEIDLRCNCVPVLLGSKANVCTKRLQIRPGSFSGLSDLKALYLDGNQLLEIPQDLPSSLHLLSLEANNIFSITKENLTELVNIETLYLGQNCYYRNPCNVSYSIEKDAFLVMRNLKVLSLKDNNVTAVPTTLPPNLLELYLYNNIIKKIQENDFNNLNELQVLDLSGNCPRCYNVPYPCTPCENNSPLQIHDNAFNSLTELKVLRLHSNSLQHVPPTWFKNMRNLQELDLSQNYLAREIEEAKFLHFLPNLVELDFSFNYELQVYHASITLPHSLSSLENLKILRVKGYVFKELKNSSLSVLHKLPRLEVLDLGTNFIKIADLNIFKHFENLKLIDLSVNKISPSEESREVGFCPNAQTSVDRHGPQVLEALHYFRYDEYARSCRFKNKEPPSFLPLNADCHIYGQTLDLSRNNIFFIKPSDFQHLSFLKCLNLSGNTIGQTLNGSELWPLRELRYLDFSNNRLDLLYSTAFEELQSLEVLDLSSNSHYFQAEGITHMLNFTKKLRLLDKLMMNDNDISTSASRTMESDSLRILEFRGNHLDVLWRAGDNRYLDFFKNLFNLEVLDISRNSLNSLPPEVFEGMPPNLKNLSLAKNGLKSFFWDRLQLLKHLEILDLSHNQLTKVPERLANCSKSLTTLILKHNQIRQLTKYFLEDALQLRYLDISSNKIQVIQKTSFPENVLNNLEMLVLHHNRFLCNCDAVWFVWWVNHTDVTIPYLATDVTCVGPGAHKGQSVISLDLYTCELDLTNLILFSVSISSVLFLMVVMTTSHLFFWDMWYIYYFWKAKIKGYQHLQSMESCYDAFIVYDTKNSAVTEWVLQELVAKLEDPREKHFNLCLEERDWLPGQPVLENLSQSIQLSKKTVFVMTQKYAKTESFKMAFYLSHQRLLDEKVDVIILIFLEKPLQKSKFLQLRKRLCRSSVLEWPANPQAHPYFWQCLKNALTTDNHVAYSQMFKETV
Put plainly: Agonist activity at mouse TLR7.

A short description of series [10]: Cytotoxicity against PHA-activated T-cells (unknown origin) assessed as inhibition of IL-2 induced cell proliferation measured after 72 hrs by MTS assay. Format: toxicity, cell-based.
The target in series [11] is T4, Cytochrome P450 1A2 (Homo sapiens, UniProt P05177).
T4 sequence (P05177 whole entry): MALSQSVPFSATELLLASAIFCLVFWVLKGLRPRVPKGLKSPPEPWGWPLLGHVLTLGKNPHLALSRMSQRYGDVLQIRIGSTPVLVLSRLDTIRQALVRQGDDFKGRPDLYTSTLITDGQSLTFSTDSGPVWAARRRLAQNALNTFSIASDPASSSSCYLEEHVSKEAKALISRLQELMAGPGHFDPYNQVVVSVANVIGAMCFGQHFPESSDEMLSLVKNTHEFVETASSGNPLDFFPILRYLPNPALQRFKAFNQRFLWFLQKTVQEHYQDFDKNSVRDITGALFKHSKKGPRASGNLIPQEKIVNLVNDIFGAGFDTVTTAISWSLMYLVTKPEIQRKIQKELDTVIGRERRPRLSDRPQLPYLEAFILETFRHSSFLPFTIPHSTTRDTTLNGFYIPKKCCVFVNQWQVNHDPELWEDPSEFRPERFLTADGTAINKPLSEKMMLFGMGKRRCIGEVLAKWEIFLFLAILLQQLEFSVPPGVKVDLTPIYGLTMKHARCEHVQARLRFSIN
Put plainly: Inhibition of CYP1A2 (unknown origin). It counts as ADME.

For series [12], the target named is Cytochrome P450 2C9 (Homo sapiens, UniProt P11712). Put plainly: Inhibition of CYP2C9 (unknown origin). It counts as ADME.
Chain of Cytochrome P450 2C9 (P11712 whole entry): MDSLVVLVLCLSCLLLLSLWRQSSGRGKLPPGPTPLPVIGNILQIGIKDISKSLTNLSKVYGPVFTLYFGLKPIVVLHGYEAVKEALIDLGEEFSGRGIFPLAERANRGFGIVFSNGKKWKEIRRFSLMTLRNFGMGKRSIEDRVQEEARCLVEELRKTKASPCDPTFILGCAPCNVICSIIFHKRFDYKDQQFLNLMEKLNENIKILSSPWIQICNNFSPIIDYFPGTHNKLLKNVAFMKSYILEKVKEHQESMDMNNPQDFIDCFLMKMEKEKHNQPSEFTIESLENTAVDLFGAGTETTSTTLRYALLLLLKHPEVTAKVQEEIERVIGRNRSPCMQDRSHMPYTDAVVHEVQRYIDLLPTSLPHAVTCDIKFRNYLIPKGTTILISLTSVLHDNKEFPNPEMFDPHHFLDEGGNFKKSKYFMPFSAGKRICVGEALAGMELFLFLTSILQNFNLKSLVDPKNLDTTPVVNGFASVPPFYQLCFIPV
In series [13] the target is Voltage-gated inwardly rectifying potassium channel KCNH2 (Homo sapiens, UniProt Q12809). Put plainly: Inhibition of hERG. Format: toxicity.
Chain of Voltage-gated inwardly rectifying potassium channel KCNH2 (Q12809 whole entry): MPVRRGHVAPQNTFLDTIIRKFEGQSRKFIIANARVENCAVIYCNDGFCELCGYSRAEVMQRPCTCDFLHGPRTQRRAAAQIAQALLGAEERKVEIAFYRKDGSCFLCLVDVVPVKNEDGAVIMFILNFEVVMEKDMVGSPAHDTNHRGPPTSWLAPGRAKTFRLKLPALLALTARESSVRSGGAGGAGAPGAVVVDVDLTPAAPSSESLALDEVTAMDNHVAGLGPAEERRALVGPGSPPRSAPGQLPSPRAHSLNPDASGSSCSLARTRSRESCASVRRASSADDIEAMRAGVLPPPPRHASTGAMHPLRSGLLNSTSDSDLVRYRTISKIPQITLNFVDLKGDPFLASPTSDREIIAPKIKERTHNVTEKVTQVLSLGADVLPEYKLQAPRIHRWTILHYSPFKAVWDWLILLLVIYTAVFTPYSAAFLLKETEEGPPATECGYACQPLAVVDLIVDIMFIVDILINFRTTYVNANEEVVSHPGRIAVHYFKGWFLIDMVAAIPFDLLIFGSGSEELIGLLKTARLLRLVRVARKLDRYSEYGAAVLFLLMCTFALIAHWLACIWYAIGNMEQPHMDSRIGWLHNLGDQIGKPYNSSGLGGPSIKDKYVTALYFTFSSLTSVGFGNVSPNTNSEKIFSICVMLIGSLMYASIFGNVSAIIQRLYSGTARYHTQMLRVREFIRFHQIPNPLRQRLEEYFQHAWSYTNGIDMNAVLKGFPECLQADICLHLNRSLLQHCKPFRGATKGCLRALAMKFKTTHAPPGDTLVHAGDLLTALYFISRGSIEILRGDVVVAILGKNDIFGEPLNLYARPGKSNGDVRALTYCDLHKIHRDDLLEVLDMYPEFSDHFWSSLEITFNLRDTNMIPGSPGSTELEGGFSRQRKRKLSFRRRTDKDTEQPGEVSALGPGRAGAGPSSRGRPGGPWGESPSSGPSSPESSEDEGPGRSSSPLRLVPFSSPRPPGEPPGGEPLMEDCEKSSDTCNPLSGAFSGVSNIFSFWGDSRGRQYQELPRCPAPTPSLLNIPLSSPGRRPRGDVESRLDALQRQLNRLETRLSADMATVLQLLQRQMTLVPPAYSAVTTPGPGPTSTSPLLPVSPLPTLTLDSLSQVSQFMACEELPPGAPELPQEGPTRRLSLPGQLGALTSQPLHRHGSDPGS
The target of series [14] is T5, Cytochrome P450 2C8 (Homo sapiens, UniProt P10632).
T5 sequence (P10632 whole entry): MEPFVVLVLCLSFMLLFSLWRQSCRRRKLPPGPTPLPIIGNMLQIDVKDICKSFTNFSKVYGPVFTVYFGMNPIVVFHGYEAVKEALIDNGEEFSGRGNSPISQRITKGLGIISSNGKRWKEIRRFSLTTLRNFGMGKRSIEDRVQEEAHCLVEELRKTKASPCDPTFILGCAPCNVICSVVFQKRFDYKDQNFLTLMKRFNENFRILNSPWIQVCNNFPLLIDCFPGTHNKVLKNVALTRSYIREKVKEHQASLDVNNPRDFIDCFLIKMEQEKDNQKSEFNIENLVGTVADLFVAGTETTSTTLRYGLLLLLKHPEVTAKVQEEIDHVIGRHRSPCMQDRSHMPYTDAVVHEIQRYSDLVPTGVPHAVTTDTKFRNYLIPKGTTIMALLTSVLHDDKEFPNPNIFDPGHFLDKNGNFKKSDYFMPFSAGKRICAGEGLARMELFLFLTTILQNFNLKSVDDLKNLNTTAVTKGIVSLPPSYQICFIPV
In words: Inhibition of CYP2C8 (unknown origin). It counts as ADME.

Chain of Cytochrome P450 2C19 (P33261 whole entry): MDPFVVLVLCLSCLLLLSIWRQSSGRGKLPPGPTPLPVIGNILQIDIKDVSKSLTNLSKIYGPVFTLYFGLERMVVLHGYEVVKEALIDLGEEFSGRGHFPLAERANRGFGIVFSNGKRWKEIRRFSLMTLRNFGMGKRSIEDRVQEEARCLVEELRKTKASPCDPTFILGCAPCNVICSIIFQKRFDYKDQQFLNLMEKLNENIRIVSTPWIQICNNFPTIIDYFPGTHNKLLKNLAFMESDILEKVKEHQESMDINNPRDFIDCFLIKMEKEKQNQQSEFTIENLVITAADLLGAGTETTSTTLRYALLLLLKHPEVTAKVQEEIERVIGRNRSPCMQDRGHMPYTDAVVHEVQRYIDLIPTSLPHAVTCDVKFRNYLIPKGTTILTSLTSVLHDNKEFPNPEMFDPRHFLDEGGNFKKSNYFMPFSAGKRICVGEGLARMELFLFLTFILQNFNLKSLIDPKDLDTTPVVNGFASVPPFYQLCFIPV

The IC50 is the midpoint of a concentration-inhibition curve. The term EC50 denotes the concentration at which the effect is half-maximal. A low value points to a more potent agent. For `CCC[C@@H](CCO)Nc1nc(N)nc2cnn(Cc3ncc(C4CC5(C4)CN(C4CCOCC4)C5)cc3OC)c12`, the IC50 in [1], in series [3], in series [5], in [6], in [8] and in [11] was > 20 µM throughout. In addition, the IC50 in series [12] is > 20 µM; in series [13], > 50 µM; in series [14] it was > 20 µM. The remaining at 10 min, 0.5 µM in series [2] worked out at 77%; in series [4], 66%. The 50% effective concentration (EC50) in series [7] amounted to 0.37 µM; in [9], 0.148 µM. The IC50 at 72 h in series [10] is > 25 µM.

For `CCC[C@@H](CCO)Nc1nc(N)nc2cnn(Cc3ncc(C4CCN(CCO)CC4)cc3OC)c12`, the IC50 in series [1], in series [3], in series [5], in series [6], in series [8] and in series [11] was > 20 µM in each case. The IC50 is > 20 µM in [12], > 50 µM in [13] and > 20 µM in series [14]. The remaining at 10 min, 0.5 µM is 93% in series [2] and 100% in series [4]. Further, the EC50 in series [7] is 0.049 µM; in series [9] it was 0.124 µM. Besides, the IC50 at 72 h in [10] is > 25 µM.

As to `CCCCNc1nc(N)nc2c(CC)nn(Cc3ncc(C4CCNCC4)cc3OC)c12`, the IC50 in series [1], in series [3], in series [5], in [6], in series [8] and in series [11] was > 20 µM each time. For the same compound, the IC50 in series [12] was > 20 µM; in series [13], > 50 µM; in series [14], > 20 µM. The remaining at 10 min, 0.5 µM is 74% in series [2] and 47% in [4]. The EC50 in [7] was 0.572 µM; in [9], > 5 µM. In [10], the IC50 at 72 h was > 25 µM.
